The subject of the assay is primary CLL samples (CD19+ and CD5+ cells). Nature of the assay: High-throughput dynamic BH3 profiling (HT-DBP): drug-induced apoptotic priming (delta priming), cytochrome c release after BH3 peptide. The format is cell-based, human. The following applies: for drug-induced apoptotic priming: across CLL subtypes, 65 primary CLL samples, 20 hours drug. How it is done:
By “delta priming” is meant the difference in priming of a cell for apoptosis measured in the presence of an agent for treating chronic lymphocytic leukemia relative to priming of the cell in the presence of an inert carrier. In embodiments, the inert carrier is DMSO.
Dynamic BH3 Profiling Dynamic BH3 profiling (DBP) is a drug screening assay that measures the relative priming of cells in a biological sample for cell death by apoptosis in the presence of a specific compound and/or a pro-apoptotic peptide. By “Dynamic BH3 profiling” is meant measuring drug-induced changes in mitochondrial apoptotic priming. Mitochondrial apoptotic priming is a measure of how close to the apoptotic threshold a cell is. A highly primed cell has relatively less anti-apoptotic binding site availability and is closer to the apoptotic threshold than a poorly primed cell, which has more anti-apoptotic availability to buffer an apoptotic assault and is further from the apoptotic threshold. BH3 peptides derived from the BH3 domain of pro-apoptotic BH3-only proteins provoke a response from viable mitochondria. Cytochrome c released from the mitochondria after a short incubation with BH3 peptide is used as a surrogate for priming. In general, the more sensitive a mitochondrion is to a BH3 peptide, the more primed it is. A drug treatment that enhances priming will cause mitochondria to undergo MOMP more easily when incubated with a fixed concentration of a promiscuously binding BH3 peptide, such as BIM BH3 peptide, compared to control-treated cells. See, for example, Potter, D. S. & Letai, A. To prime, or not to prime: that is the question. Cold Spring Harb. Symp. Quant. Biol. 81, 131-140 (2016); Montero, J. et al. Drug-induced death signaling strategy rapidly predicts cancer response to chemotherapy. Cell 160, 977-989 (2015); Daniels, V. W. et al. Metabolic perturbations sensitize triple-negative breast cancers to apoptosis induced by BH3 mimetics. Sci.
Dynamic BH3 profiling and peptides for use therein are described, for example, in Certo, et al., “Mitochondria primed by death signals determine cellular addiction to antiapoptotic BCL-2 family members,” Cancer Cell, 9:351-365 (2006); and in Foight, et al. “Designed BH3 Peptides with High Affinity and Specificity for Targeting Mcl-1 in Cells,” ACS Chemical Biology, 9:1962-1968 (2014), the disclosures of which are incorporated herein by reference in their entireties for all purposes. The DBP assay enables one to compare the response of a patient tumor sample to a specific drug relative to other drugs and relative to an inert control (e.g., DMSO).
To address the challenge of selecting a proper treatment for a chronic lymphocytic leukemia, experiments were undertaken to optimize high-throughput dynamic BH3 profiling (HT-DBP) for evaluation of the drug sensitivities of CLL samples (FIGS. 1, 13, 5A, 5B, 6A, 6B, and 7A-7C).

Setting [1] is: peptide PUMA 1 uM, feature EC-i.
The mark [2] stands for this setting: peptide BAD 0.3 uM, feature BIRC3.
The mark [3] stands for this setting: peptide BAD 0.3 uM, feature EC-m2.
The mark [4] stands for this setting: peptide BAD 0.3 uM, feature FBXW7.
Where [5] appears, read: peptide BAD 0.3 uM, feature ITIH2.
Setting [6] is: peptide BAD 0.3 uM, feature MYD88.
The mark [7] stands for this setting: peptide BAD 0.3 uM, feature gain_19p13.3.
Where [8] appears, read: peptide BAD 0.3 uM, feature i-CLL.
Where [9] appears, read: peptide BAD 0.3 uM, feature loss_3p21.31.
The mark [10] stands for this setting: peptide BAD 0.3 uM, feature loss_5p15.33.
[11] abbreviates: peptide BAD 0.3 uM, feature loss_7q36.1.
Where [12] appears, read: peptide BAD 0.3 uM, feature loss_8p.
The mark [13] stands for this setting: peptide BAD 0.3 uM, feature loss_12p13.31a.
[14] abbreviates: peptide BAD 0.3 uM, feature loss_14q32.12.
Setting [15] is: peptide BAD 0.3 uM, feature loss_17p13.1.
Setting [16] is: peptide BAD 0.3 uM, feature loss_17p13.3.
[17] abbreviates: peptide BAD 0.3 uM, feature loss_17q11.2.
The mark [18] stands for this setting: peptide BIM 0.01 uM, feature EC-i.
The mark [19] stands for this setting: peptide BIM 0.01 uM, feature loss_1p36.11.
The mark [20] stands for this setting: peptide BIM 0.01 uM, feature loss_3p13.
The mark [21] stands for this setting: peptide BIM 0.01 uM, feature loss_10q24.32.
Where [22] appears, read: peptide BIM 0.01 uM, feature loss_18q21.2.
[23] abbreviates: peptide BIM 0.01 uM, feature priortrt_Post.
[24] abbreviates: peptide MS1 2.5 uM, feature EC-m4.

The structures appear in SMILES notation.

Results on five compounds are retold here after US20250255889A1, “METHODS FOR TREATMENT SELECTION FOR CHRONIC LYMPHOCYTIC LEUKEMIA (CLL)” (The Broad Institute, Inc., priority 2022, published 2025).

As for `CCn1c(-c2nonc2N)nc2c(C#CC(C)(C)O)ncc(OC[C@H]3CCCNC3)c21` [GSK690693], the direction entry runs as follows: (Feature i-CLL) “Sensitive”; (peptide BAD 0.3 uM, feature EC-o) “Sensitive”; (peptide BAD 0.3 uM, feature POT1) “Resistant”; (peptide BAD 0.3 uM, feature loss_3p13) “Resistant”; (peptide BIM 0.01 uM, feature i-CLL) “Sensitive”; (peptide MS1 2.5 uM, feature EC-m3) “Resistant”. Besides, the direction result (peptide MS1 2.5 uM, feature EC-o) is given as “Sensitive”; the direction result (peptide MS1 2.5 uM, feature i-CLL) is given as “Sensitive”; the direction result (peptide MS1 2.5 uM, feature loss_13q14.13) is listed as “Sensitive”; the direction entry (peptide PUMA 1 uM, feature BIRC3) is reported as “Sensitive”; the direction entry (peptide PUMA 1 uM, feature ITIH2) was “Sensitive”; the direction result (peptide PUMA 1 uM, feature i-CLL) was “Sensitive”. The direction entry reads like this: (peptide PUMA 1 uM, feature loss_9p21.3) “Sensitive”; (peptide PUMA 1 uM, feature loss_17q11.2) “Sensitive”.
Turning to `Cc1cc(Nc2cc(CN3CCOCC3)c3nc(C)c(Cc4ccc(Cl)cc4F)n3n2)n[nH]1` [Gandotinib], the drug-induced apoptotic priming result was “high priming”. For the same compound, where the note is “EC-ul (U-CLL)”, the “drug-induced apoptotic priming by expression cluster” value is “most sensitive”. Besides, where the note is “Feature EC-i”, the direction entry is “Resistant”. The direction entry (peptide BAD 0.3 uM, feature EC-i) is reported as “Resistant”. The direction entry (peptide BAD 0.3 uM, feature GNB1) is reported as “Sensitive”. Moreover, the direction entry under setting [1] was “Resistant”. Moreover, for the setting “peptide PUMA 1 uM, feature GNB1”, the direction entry is on record as “Sensitive”.
Turning to `CC[C@H](Nc1ncnc2nc[nH]c12)c1nc2cccc(F)c2c(=O)n1-c1ccccc1` [Idelalisib, idelalisib], the drug-induced apoptotic priming entry is given as “high priming”. Besides, the direction entry (peptide MS1 2.5 uM, feature tri_12) is recorded as “Sensitive”. Besides, the direction result (peptide PUMA 1 uM, feature DICER1) was “Resistant”. For the same compound, the direction result (peptide PUMA 1 uM, feature EC-m4) is listed as “Sensitive”. Under “peptide PUMA 1 uM, feature KMT2D”, the direction entry is “Sensitive”. Also, where the note is “peptide PUMA 1 uM, feature MED1”, the direction entry is reported as “Resistant”.
On to `Cc1sc2c(c1C)C(c1ccc(Cl)cc1)=N[C@@H](CC(=O)OC(C)(C)C)c1nnc(C)n1-2` [JQ1], for which the direction result reads like this: (Feature EC-i) “Sensitive”; (Feature FBXW7) “Sensitive”; under setting [2], “Sensitive”; under setting [3], “Sensitive”; under setting [4], “Sensitive”; under setting [5], “Sensitive”. Moreover, the direction result is recorded as “Resistant” under setting [6]; “Sensitive” under setting [7]; “Sensitive” under setting [8]; “Resistant” under setting [9]; “Resistant” under setting [10]; “Resistant” under setting [11]. For the same compound, the direction entry is, setting by setting: under setting [12], “Resistant”; under setting [13], “Resistant”; under setting [14], “Resistant”; under setting [15], “Sensitive”; under setting [16], “Resistant”; under setting [17], “Sensitive”. In addition, the direction entry under setting [18] is reported as “Sensitive”; the direction result under setting [19] was “Sensitive”; the direction entry under setting [20] is reported as “Sensitive”; the direction entry under setting [21] is reported as “Sensitive”; the direction entry under setting [22] is on record as “Sensitive”; the direction entry under setting [23] was “Sensitive”. The direction result by setting is: under setting [24], “Sensitive”; (peptide PUMA 1 uM, feature ATM) “Resistant”; under setting [1], “Resistant”; (peptide PUMA 1 uM, feature MYD88) “Resistant”; (peptide PUMA 1 uM, feature gain_16p11.2) “Resistant”; (peptide PUMA 1 uM, feature loss_1p36.11) “Sensitive”. The direction result runs as follows: (peptide PUMA 1 uM, feature loss_1q21.3) “Resistant”; (peptide PUMA 1 uM, feature loss_2q31.1) “Resistant”; (peptide PUMA 1 uM, feature loss_3p13) “Sensitive”; (peptide PUMA 1 uM, feature loss_3p21.31) “Resistant”; (peptide PUMA 1 uM, feature loss_5p15.33) “Resistant”; (peptide PUMA 1 uM, feature loss_7p22.2) “Resistant”. The direction result (peptide PUMA 1 uM, feature loss_7q36.1) is on record as “Resistant”; the direction result (peptide PUMA 1 uM, feature loss_8p) was “Resistant”; the direction result (peptide PUMA 1 uM, feature loss_10p12.2) is on record as “Resistant”; the direction entry (peptide PUMA 1 uM, feature loss_10q24.32) is on record as “Sensitive”; the direction entry (peptide PUMA 1 uM, feature loss_12p13.31a) is “Resistant”; the direction entry (peptide PUMA 1 uM, feature loss_14q32.12) was “Resistant”. Further, the direction entry (peptide PUMA 1 uM, feature loss_16q22.1) is recorded as “Resistant”; the direction entry (peptide PUMA 1 uM, feature loss_17p13.3) is “Resistant”; the direction entry (peptide PUMA 1 uM, feature loss_18q21.2) is “Sensitive”. Further, the dprim_pearson_corr is 0.6355 under setting [2]; 0.3877 under setting [3]; 0.5086 under setting [4]; 0.6355 under setting [5]; −0.3438 under setting [6]; 0.359 under setting [7]. The dprim_pearson_corr runs as follows: under setting [8], 0.3327; under setting [9], −0.3438; under setting [10], −0.3996; under setting [11], −0.3438; under setting [12], −0.3438; under setting [13], −0.3996. Moreover, the dprim_pearson_corr reads like this: under setting [14], −0.3438; under setting [15], 0.507; under setting [16], −0.3996; under setting [17], 0.6355; under setting [18], 0.3826; under setting [19], 0.4365. Also, the dprim_pearson_corr under setting [20] is listed as 0.3364; the dprim_pearson_corr under setting [21] came to 0.4365; the dprim_pearson_corr under setting [22] is recorded as 0.4365; the dprim_pearson_corr under setting [23] came to 0.3609; the dprim_pearson_corr under setting [24] is given as 0.3901.
As for `Nc1cccc2c1CN(C1CCC(=O)NC1=O)C2=O` (stereo not drawn) [Lenalidomide], the direction entry (peptide BAD 0.3 uM, feature loss_10q24.32) is “Resistant”; the direction entry (peptide BIM 0.01 uM, feature loss_15q15.1b) is given as “Resistant”; the direction entry (peptide BIM 0.01 uM, feature loss_20p11.22) was “Resistant”; the direction result (peptide MS1 2.5 uM, feature CNOT3) is “Sensitive”.
